# From patent publication US20250339426A1, “GCN2 MODULATOR FOR TREATING CANCER” (HIBERCELL, INC., priority 2022, published 2025)
# Legend:
# [1] = tested on: MV4-11 (human AML cancer cells); assay: In vivo tumor growth inhibition, MV4-11 xenograft; design: species or system BALB/c nude mice
# Protocol: MV4-11 (human AML cancer cells): Female 6-8 weeks old BALB/c nude mice were inoculated subcutaneously on the right flank with MV4-11 tumor cells (1×10^7) in RPMI 1640 without serum for tumor development. The treatments were started when the mean tumor size reached approximately 150 mm^3 at Day 13 after cell inoculation and continued until end of study by twice daily oral gavage dosing of HC-7366 at listed doses (vehicle, 0.3 mg/kg HC-7366, 1 mg/kg HC-7366, 3 mg/kg HC-7366, 10 mg/kg HC-7366, or 30 mg/kg HC-7366, FIG. 20). For venetoclax combination study, venetoclax was dissolved in 0.5% carboxymethylcellulose (CMC) and co-administered at 50 mg/kg dose once daily (see Example 8).
# [formula] • 2.2.2 Tumor Measurements: The measurement of tumor size was conducted three times weekly with a caliper and recorded. The tumor volume (mm^3) was estimated using the formula: TV=a×b^2/2, where “a” and “b” is long and short diameters of a tumor, respectively. Tumor volume was calculated using the formula [tumor volume (mm^3)=π/6×length×width^2).
# Regression was calculated using the formula=100×ΔT/T initial, if ΔT<0. Animals with 0 mm^3 tumor volume (no measurable tumor) for three consecutive measurements were considered as complete responders and animals with 50% tumor regressions were partial responders.
# MV4-11 tumors were collected at the end of the venetoclax combination study described in Example 6. Tumor growth curves are provided of MV4-11 tumors treated with single agent HC-7366 and venetoclax or combination (FIG. 43).
# [2] = tested on: HIF2α and GLUT1 in 786-O tumors; assay: Tumor IHC, 786-O tumors (DC101 combination study); type: in vivo, BALB/c nude mice; details: HC-7366 2 mg/kg twice daily, DC101 15 mg/kg twice a week
# Protocol: 786-O (human renal cell carcinoma cancer cells): Female 6-8 weeks old BALB/c nude mice were inoculated subcutaneously on the right flank with 786-O tumor cells (5×10^6) in 0.1 ml of RPMI1640 medium without serum for tumor development. The treatments were started when the mean tumor size reached approximately 189 mm^3 after three weeks post inoculation and continued until end of study by twice daily oral gavage dosing of HC-7366 at listed doses (vehicle or 2 mg/kg HC-7366, FIGS. 52-54). For the DC101 combination study, DC101 (murine monoclonal anti-VEGFR2 antibody) was dosed at 15 mg/kg twice a week by intraperitoneal injection.
# Immunohistochemical analysis was carried out on tumors that were collected at the end of the study described in Example 6. […]
# Slides were imaged with Aperio Versa 200 (Leica Biosystems) whole-slide scanner using 10×/0.32NA objective, and the data were analyzed using custom-written macros in ImageJ/FIJI (NIH). Briefly, 150 μm of outer edges of the tumor sections and necrotic regions (determined by lack of 4′,6-diamidino-2-phenylindole (DAPI) signal or presence of condensed DNA) were eliminated from the analysis. […] Scans of immune-staining were processed to remove background, then total intensity value above appropriate threshold levels was measured and normalized to tissue area. […]
# [3] = tested on: ATF4, ASNS, PSAT1 in MOLM-16 cells; assay: Jess protein analysis, MOLM-16 cells; type: cell-based, human; details: sgControl vs sgGCN2, 24 hr
# Protocol: Cell lysates were obtained from MOLM-16 sgControl or sgGCN2 cells treated with HC-7366 (0, 0.01, 0.1 and 10 μM) for 24 hr. Ice cold 1x radioimmunoprecipitation assay (RIPA) lysis buffer supplemented with protease and phosphatase inhibitors was added to the cell pellets, on ice. After 30 min on ice, the cell lysates were centrifuged at 4° C., 12,000 rpm for 15 minutes and the supernatant collected. Protein concentration was determined using BCA kit. The cell lysates were mixed with 5× sodium dodecyl sulfate (SDS) loading buffer and denatured at 95° C. for 5 minutes. 1 μg lysate was run on Jess capillary and results were analyzed by compass simple western software.
# [4] = tested on: Ki67 positive cells in DLD-1 tumor sections; assay: IHC staining of Ki67 in DLD-1 tumor sections; type: in vivo, mice
# Protocol: DLD-1 (human colorectal cancer cells): Female 6-8 weeks old BALB/c nude mice were inoculated subcutaneously on the right flank with DLD-1 tumor cells (5×10^6) in 0.1 ml of RPMI1640 medium without serum for tumor development. The treatments were started when the mean tumor size reached approximately 195 mm^3 at Day 7 post inoculation and continued until end of study by twice daily oral gavage dosing of HC-7366 at listed doses (vehicle, 0.3 mg/kg HC-7366, 1 mg/kg HC-7366, 3 mg/kg HC-7366, 10 mg/kg HC-7366, or 30 mg/kg HC-7366, FIG. 10). For the time course study, tumors were harvested at Days 4, 7 and 14. Tumors were then used for IHC and RNAseq experiments (see Example 21).
# DLD-1 tumor bearing mice were treated with HC-7366 at 0.3, 1, 3, 10 and 30 mg/kg twice a day for 14 days. Tumors were harvested for RNAseq analysis at Day 4, Day 7 and Day 14 (FIG. 128).
structure (smiles),measurement,setting,value
"CNC(=O)c1ncn2cc(-c3c(F)ccc(NS(=O)(=O)c4cc(Cl)cnc4OC)c3F)ncc12 [HC-7366, 6-(3-((5-chloro-2-methoxypyridine)-3-sulfonamido)-2,6-difluorophenyl)-N-methylimidazo[1,5-a]pyrazine-1-carboxamide]",TGI,[1]; 30 mg/kg twice daily oral,45%
same,TGI,"[1]; venetoclax combination study, HC-7366 as a single agent, dose not stated",34%
same,GLUT1 levels by IHC,[2],significantly reduced
same,HIF2α by IHC,[2]; single agents and combination,significantly decreased
same,"levels of ATF4, ASNS and PSAT1",[3],GCN2-dependent increase
same,Ki67 positive cancer cells,"[4]; Day 4, 0.3, 10 or 30 mg/kg",not at the less efficacious doses
same,Ki67 positive cancer cells,"[4]; Day 4, 1 and 3 mg/kg",significantly reduced
